These results are taken from US20230114241A1, “METHODS OF TREATING EPILEPSY USING THE SAME” (Trevena, Inc., priority 2019, published 2023).

The target in experiment [1] is T1, human sphingosine-1-phosphate receptor 1 (S1P1) (Homo sapiens, UniProt P21453). The experiment is described as follows: β-Arrestin2 recruitment assay (PathHunter), S1P1 CHO-K1 cells. Format: cell-based. The conditions noted are these: for Emax: CHO-K1, efficacy normalized to maximum efficacy of fingolimod, read-out: hS1P1 B-arrestin2 SPAN; for EC50: β-arrestin2 recruitment, S1P1, read-out: hS1P1 B-arrestin2 pEC50 (converted). The method, boiled down:
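Agonist-driven β-arrestin2 recruitment measured by β-galactosidase complementation after 60 min compound exposure at 37 °C and 1 h detection at room temperature. Cells: stable CHO-K1 line expressing tagged human S1P1 with EA-β-arrestin2, plated the night before. Data expressed relative to fingolimod.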
A general note: Recruitment of arrestin is a read-out of receptor activation apart from second messengers.
Target sequence in this assay (P21453 whole entry): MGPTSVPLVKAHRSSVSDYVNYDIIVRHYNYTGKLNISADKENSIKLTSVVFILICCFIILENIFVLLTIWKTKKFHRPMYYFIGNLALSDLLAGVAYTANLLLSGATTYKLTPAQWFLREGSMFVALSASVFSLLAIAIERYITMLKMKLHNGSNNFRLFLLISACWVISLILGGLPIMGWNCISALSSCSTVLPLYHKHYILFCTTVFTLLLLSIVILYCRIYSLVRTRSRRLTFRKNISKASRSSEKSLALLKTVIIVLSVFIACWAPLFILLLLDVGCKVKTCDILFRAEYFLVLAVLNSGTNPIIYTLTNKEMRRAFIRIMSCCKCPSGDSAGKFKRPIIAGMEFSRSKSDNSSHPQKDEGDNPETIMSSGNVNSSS
Target sequence in this assay (P32121 whole entry partner): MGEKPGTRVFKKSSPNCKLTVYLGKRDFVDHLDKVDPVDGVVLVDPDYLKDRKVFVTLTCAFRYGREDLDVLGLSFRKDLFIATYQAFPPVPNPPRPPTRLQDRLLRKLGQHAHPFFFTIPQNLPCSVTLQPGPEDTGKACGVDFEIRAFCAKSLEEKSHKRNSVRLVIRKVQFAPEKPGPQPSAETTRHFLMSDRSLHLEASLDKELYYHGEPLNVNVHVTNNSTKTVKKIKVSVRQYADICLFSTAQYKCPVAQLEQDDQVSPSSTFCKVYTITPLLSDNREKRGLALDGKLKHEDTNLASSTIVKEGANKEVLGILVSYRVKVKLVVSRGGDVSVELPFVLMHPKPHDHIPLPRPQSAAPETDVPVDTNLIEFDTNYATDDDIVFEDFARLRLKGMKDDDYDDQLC

Experiment [2] addresses T1, human sphingosine-1-phosphate receptor 1 (S1P1). In words: Inhibition of cAMP production (HTRF cAMP HiRange), S1P1 CHO-K1 cells. The conditions noted are these: for Emax: CHO-K1, efficacy normalized to maximum efficacy of fingolimod, read-out: hS1P1 CAMP SPAN; for EC50: inhibition of cAMP production, S1P1, read-out: hS1P1 CAMP pEC50 (converted). Format: cell-based. The method, boiled down:
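Intracellular cAMP changes read by TR-FRET (HTRF HiRange, 1 h room temperature) after 30 min compound exposure at 37 °C. Cells: overnight-plated CHO-K1 stably expressing tagged human S1P1 with EA-β-arrestin2. Responses normalized to fingolimod.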
Target sequence in this assay (P21453 whole entry): as the sequence (P21453 whole entry) above

For `CC(C)n1ccc2cc(-c3nc(-c4ccccc4C(F)(F)F)cs3)cnc21` [Compound 408, 2-(1-isopropylpyrrolo[2,3-b]pyridin-5-yl)-4-[2-(trifluoromethyl)phenyl] thiazole], in experiment [1], the Emax is less than 75% and the EC50 was greater than 10 µM. For the same molecule, in experiment [2], the Emax was greater than 75% and the EC50 is greater than 0.316 µM.
For `Cc1ccccc1-c1csc(-c2ccc3c(ccn3C(C)C)n2)n1` [Compound 409, 2-(1-isopropyl-pyrrolo [3,2-b]pyridin-5-yl)-4-(o-tolyl)thiazole], the Emax in experiment [1] is less than 75%; in experiment [2], greater than 75%. In addition, the EC50 in experiment [1] is greater than 10 µM; in experiment [2] it was greater than 0.316 µM.
`COc1cccc(-c2csc(-c3ccc4c(ccn4C(C)C)n3)n2)c1` [Compound 410, 2-(1-isoproplpyrrolo[3,2-b]pyridin-5-yl)-4-(3-methoxyphenyl)thiazole]: in experiment [1], the Emax was less than 75% and the EC50 is greater than 10 µM. Also, in experiment [2], the Emax is less than 75% and the EC50 was greater than 0.316 µM.
As for `COc1ccccc1-c1csc(-c2ccc3c(ccn3C(C)C)n2)n1` [Compound 411, 2-(1-isopropyl-1H-pyrrolo[3,2-b]pyridin-5-yl)-4-(2-methoxyphenyl)thiazole], in experiment [1], the Emax is less than 75% and the EC50 was greater than 10 µM. Also, in experiment [2], the Emax is less than 75% and the EC50 was greater than 0.316 µM.
Take `CC(C)n1ccc2nc(-c3nc(-c4ccccc4Br)cs3)ccc21` [Compound 412, 4-(2-bromophenyl)-2-(1-isopropyl-1H-pyrrolo[3,2-b]pyridin-5-yl)thiazole]: the Emax in experiment [1] is less than 75%; in experiment [2], greater than 75%. In addition, the EC50 in experiment [1] was greater than 10 µM; in experiment [2] it was greater than 0.316 µM.
As to `CC(C)n1nnc2cc(-c3nc(-c4ccccc4Br)no3)cnc21` [Compound 413, 3-(2-bromophenyl)-5-[3-(propan-2-yl)-3H-[1,2,3]triazolo[4,5-b]pyridin-6-yl]-1,2,4-oxadiazole], the results for the Emax in experiment [1] and in experiment [2] were greater than 75% and less than 75%, respectively. Further, the EC50 in experiment [1] is less than 10 µM; in experiment [2], less than 0.316 µM.
In the same order, the values of `Cc1ccncc1-c1noc(-c2cnc3c(c2)nnn3C(C)C)n1` [Compound 414, 4-methyl-3-{5-[3-(propan-2-yl)-3H-[1,2,3]triazolo[4,5-b]pyridin-6-yl]-1,2,4-oxadiazol-3-yl}pyridine] are greater than 75%, less than 75%, greater than 10 µM and less than 0.316 µM.
In the same order, the values of `CCC1(CC)CC(=O)c2cc(-c3nc(-c4ccc5c(c4)CCC(=O)N5)no3)ccc2O1` [Compound 415, 6-(5-(2,2-diethyl-4-oxochroman-6-yl)-1,2,4-oxadiazol-3-yl)-3,4-dihydroquinolin-2(1H)-one] are greater than 75%, less than 75%, greater than 10 µM and less than 0.316 µM.
As for `CCC1(CC)CC(=O)c2cc(-c3nc(-c4ccc5c(c4)CC(=O)N5)no3)ccc2O1` [Compound 416, 5-(5-(2,2-diethyl-4-oxochroman-6-yl)-1,2,4-oxadiazol-3-yl)indolin-2-one], the Emax in experiment [1] and in experiment [2] was greater than 75% throughout. For the same molecule, the EC50 was less than 10 µM in experiment [1] and less than 0.316 µM in experiment [2].
With `COc1ccc2oc(-c3ccc4c(c3)nnn4C(C)C)nc2c1` [Compound 425, 2-(1-isopropyl-1H-benzo[d][1,2,3]triazol-5-yl)-5-methoxy-benzo[d]oxazole], in experiment [1], the Emax was greater than 75% and the EC50 is less than 10 µM. Further, in experiment [2], the Emax was greater than 75% and the EC50 was less than 0.316 µM.
On to `CC(C)n1nnc2cc(-c3nc4cccc(Br)c4o3)ccc21` [Compound 429, 7-bromo-2-(1-isopropyl-1H-benzo[d][1,2,3]triazol-5-yl)benzo[d]oxazole], for which, in experiment [1], the Emax is greater than 75% and the EC50 was greater than 10 µM. For the same molecule, in experiment [2], the Emax is greater than 75% and the EC50 is greater than 0.316 µM.
In the case of `CCC1(CC)C/C(=N/O)c2cc(-c3nc(-c4cccnc4)no3)ccc2O1` [Compound 430, N-[(4Z)-2,2-diethyl-6-[3-(pyridin-3-yl)-1,2,4-oxadiazol-5-yl]-3,4-dihydro-2H-1-benzopyran-4-ylidene]hydroxylamine], in experiment [1], the Emax is greater than 75% and the EC50 was greater than 10 µM. In experiment [2], the Emax was greater than 75% and the EC50 was greater than 0.316 µM.
For `CCC1(CC)C/C(=N\O)c2cc(-c3nc(-c4cccnc4)no3)ccc2O1` [Compound 431, N-[(4E)-2,2-diethyl-6-[3-(pyridin-3-yl)-1,2,4-oxadiazol-5-yl]-3,4-dihydro-2H-1-benzopyran-4-ylidene]hydroxylamine], in experiment [1], the Emax was greater than 75% and the EC50 was greater than 10 µM. For the same molecule, in experiment [2], the Emax is greater than 75% and the EC50 is greater than 0.316 µM.
As to `CC(C)Nc1ccc(-c2nc(-c3ccc4c(c3)NC(=O)CC4)no2)cc1C#N` [Compound 435, 2-(isopropylamino)-5-(3-(2-oxo-1,2,3,4-tetrahydroquinolin-7-yl)-1,2,4-oxadiazol-5-yl)benzonitrile], in experiment [1], the Emax is greater than 75% and the EC50 is less than 10 µM. In experiment [2], the Emax was greater than 75% and the EC50 was less than 0.316 µM.
Turning to `CC(C)Nc1ccc(-c2nc(-c3ccc4c(c3)CCNC4=O)no2)cc1C#N` [Compound 442, 2-(isopropylamino)-5-(3-(1-oxo-1,2,3,4-tetrahydroisoquinolin-6-yl)-1,2,4-oxadiazol-5-yl)benzonitrile], the Emax in experiment [1] and in experiment [2] was greater than 75% each time. In addition, the values for the EC50 in experiment [1] and in experiment [2] were less than 10 µM and less than 0.316 µM, respectively.
For `CCC1(CC)CC(=O)c2cc(-c3noc(-c4ccc(NC(C)C)c(C#N)c4)n3)ccc2O1` [Compound 443, 5-(3-(2,2-diethyl-4-oxochroman-6-y)-1,2,4-oxadiazol-5-yl)-2-(isopropyl-amino)benzonitrile], in experiment [1], the Emax is less than 75% and the EC50 is less than 10 µM. Also, in experiment [2], the Emax was greater than 75% and the EC50 is less than 0.316 µM.
Consider `CCC1(CC)CC(=O)c2cc(-c3noc(-c4ccc(NCC5CC5)c(C#N)c4)n3)ccc2O1` [Compound 444, 2-((cyclopropyl-methyl)amino)-5-(3-(2,2-diethyl-4-oxochroman-6-yl)-1,2,4-oxadiazol-5-yl)benzonitrile], for which, in experiment [1], the Emax was less than 75% and the EC50 is less than 10 µM. Also, in experiment [2], the Emax was less than 75% and the EC50 is greater than 0.316 µM.
As to `Cc1cccc2oc(-c3ccc4c(c3)nnn4CC(C)C)nc12` [Compound 447, 2-(1-isobutyl-1H-benzo[d][1,2,3]triazol-5-yl)-4-methyl-benzo[d]oxazole], in experiment [1], the Emax was less than 75% and the EC50 is less than 10 µM. Moreover, in experiment [2], the Emax was greater than 75% and the EC50 was less than 0.316 µM.
In the same order, the values of `Cc1ccc2nc(-c3ccc4c(c3)nnn4CC(C)C)oc2c1` [Compound 448, 2-(1-isobutyl-1H-benzo[d][1,2,3]triazol-5-yl)-6-methyl-benzo[d]oxazole] are less than 75%, greater than 10 µM, greater than 75% and greater than 0.316 µM.
In the same order, the values of `Cc1cccc2nc(-c3ccc4c(c3)nnn4CC(C)C)oc12` [Compound 449, 2-(1-isobutyl-1H-benzo[d][1,2,3]triazol-5-yl)-7-methyl-benzo[d]oxazole] are greater than 75%, greater than 10 µM, greater than 75% and greater than 0.316 µM.
